Measured values as given in article PMC4721142, “Randomized controlled studies on the efficacy of antiarthritic agents in inhibiting cartilage degeneration and pain associated with progression of osteoarthritis in the rat” (Arthritis Research & Therapy, 2016).
Values joined by “and” are separate entries in the source; they are usually repeats but may differ in a detail not shown here. Equal entries are not always repeated.

Assays:
[1] = Comparison of in vitro screens: overlapping effective and nontoxic range; conditions: for Overlapping effective and nontoxic range: inhibits with minimal or no toxicity to synovium or cartilage, overlapping range if effective in more than one assay;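 as to all read-outs here: compares non-toxic ranges in synovial cells and chondrocytes with effective ranges against NFkB, MMP-13 and osteoclasts, giving their overlap as the predicted efficacy range in uM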
[2] = published half-life; cited from earlier work
SW982 = assay: Synovial toxicity (CellTiter-Glo), with or without TNF-α
Experimental: Viability was measured with the CellTiter-Glo luminescent viability assay (Promega). […] To more accurately predict the effects of the drugs on osteoarthritic synovium, cells were tested with or without TNF-α (20 ng/ml; BioSource).
In Vitro Toxicity Testing with a Synovial Cell Line
Compounds were tested for synovial toxicity using SW982 cells alone or in the presence of TNF as

RAW 264.7 cells = assay: RANKL-mediated osteoclastogenesis / matrix resorption (Osteologic) assay; assay type: cell-based, murine; conditions: for minimal effective concentration: Mus musculus, RAW264.7, 168 h, read-out: Lowest inhibitory concentration, matrix resorption
In short: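 Agents were tested during or after differentiation. Wells were bleached and resorption pits were quantified by image analysis versus RANKL-only controls, using an unpaired t-test.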

[3] = tested on: Normal human articular chondrocytes; assay: Cytotoxicity to chondrogenic pellets (CellTiter-Blue)
Experimental: Differentiated chondrogenic pellets were used both to test the ability of drugs to block MMP-13 activity and to test for drug toxicity. […] Supernatants were collected and analyzed for MMP-13 using an enzyme-linked immunosorbent assay (GE Healthcare Life Sciences, Little Chalfont, UK). Cytotoxicity to pellets was assessed using CellTiter-Blue (Promega).

MIA rat model of OA = assay: MIA trial 2 histopathology (same doses as dRS test); assay type: in vivo; set-up: key to Total joint score with matrix / Total joint score w/o matrix: sum of cartilage degeneration, osteophyte and bone scores (± matrix); conditions: group mean
Experimental: Following functional testing in the first and second MIA trials, femurs were fixed in paraformaldehyde, processed, sectioned, stained with hematoxylin and eosin or Safranin O at Premier Laboratory (Longmont, CO, USA), and analyzed by a veterinary pathologist. For MIA trial 1, sections were evaluated for the percentage area of chondrocyte necrosis and/or proteolytic degeneration using a 5-point scale with 0 = none; 1 being <10 %; 2 = 10–30 %; 3 = 30–60 %; 4 = 60–90 %; and 5 being >90 %. Other characteristics of inflammation, proliferation, and integrity of the synovium, subchondral bone, and articular cartilage were scored as normal, minimal, mild, moderate, marked, or increased or decreased when severity was not graded. MIA trial 2 was measured similarly and then cross-checked according to the methods used for MIA trial 3 (see text below).
For MIA trial 3, joints were fixed and toluidine blue–stained sections of the rat knees were comprehensively analyzed from test and control subjects as detailed in Additional file 1. Briefly, a 5-point cartilage matrix score was derived based upon (1) approximate percentage of total loss of articular chondrocytes for each of four articular surfaces, (2) estimated proteoglycan loss (via Safranin O staining), and (3) loss of interstitial matrix. Chondrocyte necrosis and proteolytic degeneration of the femurs were scored on a 5-point scale as in trial 1. A femoral cartilage degeneration score and a three-zone sum of the tibial cartilage degeneration scores (mean of three levels) were also summed to create a total cartilage degeneration score. The mean osteophyte score for each joint was added to this value to create a total joint score with matrix. Other parameters assessed included synovial membrane inflammation and proliferation. Representative images from each group were also collected (see, e.g., Fig. 4 and Additional file 1: Fig. S55, Trial 3).
The histopathology for the first MIA trial was performed by Premier Laboratories (Dr. Michael Hawes, APS, Pathologist). Treatments were masked during the assessment. Chondrocyte necrosis and proteolytic degeneration of the femurs were scored on a 5 point scale with 0 = None; 1 = <10%; […]
proteoglycan content (safranin O staining), synovial membrane inflammation and proliferation, subchondral bone, and articular cartilage (as indicated in Supplementary methods). Characteristics within these categories were scored as normal, minimal, mild, moderate, marked, or +/- when severity was not graded. Slides from Trial 2 were further reviewed by Dr. Bendele using the analytical method described below for the MMT/MCLT model to confirm any conclusions.
For the histopathology of the MIA model in Trial 3, completed by Bolder BioPATH (and Dr.
Bendele), a tolouidine blue stained slide containing both halves of the joint was comprehensively analyzed from test and control subjects. Approximate % of total loss of articular chondrocytes, loss of proteoglycan and loss of collagenous matrix were determined for each articular surface (medial tibial plateau (MTP), lateral tibial plateau (LTP), medial femoral condyle (MFC), and lateral femoral condyle (LFC). Chondrocyte loss was quantified by estimating the area of cartilage in which there were no apparently viable chondrocytes and proteoglycan loss was quantified by estimating differences in intensity of toluidine blue matrix staining. Loss of interstitial matrix was an indication of disruption and diminished type II collagen. Based on the mean % loss for the four surfaces in these parameters, a five point matrix score was utilized with the subchondral bone resorption, subchondral bone sclerosis and osteophyte scores to achieve a total joint score.
Histopathology MMT/MCLT Model

[4] = tacrolimus 0.3 mg/kg, other drugs single dose

SMILES | Overlapping effective and nontoxic range [1] [µM] | t 1/2 [2] | Non-toxic range (Synovial) (SW982) | minimal effective concentration (RAW 264.7 cells) [µM] | Non-toxic & predicted range of efficacy [1] [µM] | Non-toxic range (Chondrocyte) [3] [µM] | Bone resorption score (MIA rat model of OA; [4]) | Bone resorption, percent of surface, LFC (MIA rat model of OA; [4]) [%] | Bone resorption, percent of surface, LTP (MIA rat model of OA; [4]) [%] | Bone resorption, percent of surface, MFC (MIA rat model of OA; [4]) [%] | Bone resorption, percent of surface, MTP (MIA rat model of OA; [4]) [%] | Bone resorption, percent of surface, mean (MIA rat model of OA; [4]) [%] | Cartilage matrix damage score (MIA rat model of OA; [4]) | Mean of all cartilage loss (MIA rat model of OA; [4]) [%] | Osteophyte measure (MIA rat model of OA; [4]) [µm] | Osteophyte score (MIA rat model of OA; [4]) | Subchondral bone sclerosis score (MIA rat model of OA; [4]) | Total joint score w/o matrix (MIA rat model of OA; [4]) | Total joint score with matrix (MIA rat model of OA; [4]) | further results
CC(C)(C)CC(=O)OCC(=O)[C@@]12OC(C)(C)O[C@@H]1C[C@H]1[C@@H]3CCC4=CC(=O)C=C[C@]4(C)[C@@]3(F)[C@@H](O)C[C@@]12C [Triamcinolone hexacetonide] | 62.5 to 3750 | Steroid t 1/2 = 88 min | 3.12 to 400 µM | 0.297 | – | – | – | – | – | – | – | – | – | – | – | – | – | – | – | –
C=CC[C@@H]1/C=C(\C)C[C@H](C)C[C@H](OC)[C@H]2O[C@@](O)(C(=O)C(=O)N3CCCC[C@H]3C(=O)O[C@H](/C(C)=C/[C@@H]3CC[C@@H](O)[C@H](OC)C3)[C@H](C)[C@@H](O)CC1=O)[C@H](C)C[C@@H]2OC [Tacrolimus] | 50 | – | 1.5 to 100 µM | 0.0026 | 25 to 50 | 0.8 to 50 | 4.3 | 88 | 88 | 70 | 94 | 85 | 3.8 and 3.8 ± 0.6 | 69 | 700.0 | 3.5 | 0.0 | 7.8 | 11.5 and 11.5 ± 1.7 | Bone resorption score (MIA rat model of OA; tacrolimus 0.6 mg/kg i.p.): 3.8; Bone resorption, percent of surface, LFC (MIA rat model of OA; tacrolimus 0.6 mg/kg i.p.): 80%; Bone resorption, percent of surface, LTP (MIA rat model of OA; tacrolimus 0.6 mg/kg i.p.): 70%; Bone resorption, percent of surface, MFC (MIA rat model of OA; tacrolimus 0.6 mg/kg i.p.): 63%; Bone resorption, percent of surface, MTP (MIA rat model of OA; tacrolimus 0.6 mg/kg i.p.): 68%; Bone resorption, percent of surface, mean (MIA rat model of OA; tacrolimus 0.6 mg/kg i.p.): 70%; Cartilage matrix damage score (MIA rat model of OA; tacrolimus 0.6 mg/kg i.p.): 3.8 and 3.8 ± 0.6; Mean of all cartilage loss (MIA rat model of OA; tacrolimus 0.6 mg/kg i.p.): 62%; Osteophyte measure (MIA rat model of OA; tacrolimus 0.6 mg/kg i.p.): 550.0 µm; Osteophyte score (MIA rat model of OA; tacrolimus 0.6 mg/kg i.p.): 2.8; Subchondral bone sclerosis score (MIA rat model of OA; tacrolimus 0.6 mg/kg i.p.): 0.0; Total joint score w/o matrix (MIA rat model of OA; tacrolimus 0.6 mg/kg i.p.): 6.5; Total joint score with matrix (MIA rat model of OA; tacrolimus 0.6 mg/kg i.p.): 10.3 and 10.3 ± 2.1
COc1cc(/C=C/C(=O)CC(=O)/C=C/c2ccc(O)c(OC)c2)ccc1O [Curcumin, Diferuloylmethane] | – | – | 1.7 to 54 µM | – | – | 0.84 to 27 | 4.8 | 100 | 100 | 88 | 90 | 94 | 5.0 and 5.0 ± 0.0 | 89 | 1000.0 | 4.8 | 0.0 | 9.5 | 14.5 and 14.5 ± 0.3 | t 1/2 intestinal [2]: 10 min; t 1/2 plasma [2]: 30 to 50 min
CC1=C(CO)C(=O)O[C@@H]([C@@H](C)[C@H]2CC[C@H]3[C@@H]4C[C@H]5O[C@]56[C@@H](O)C=CC(=O)[C@]6(C)[C@H]4CC[C@]23C)C1 [Withaferin A] | 4.25 to 17 | Reportedly inhibits NF-κB activation by preventing the TNF-α-induced activation of IKK-β (IKK-2) [102] Blocks osteoclastogenesis of bone remodeling [103] t 1/2 = 1.36 h | Toxic | 0.53 | 0.27 to 2.1 | 0.27 to 2.1 | – | – | – | – | – | – | – | – | – | – | – | – | – | –
CC1(C)O[C@@H]2C[C@H]3[C@@H]4C[C@H](F)C5=CC(=O)C=C[C@]5(C)[C@@]4(F)[C@@H](O)C[C@]3(C)[C@]2(C(=O)CO)O1 [Fluocinolone, Fluocinolone Acetonide] | 3.1 to 100 | Corticosteroid (potent) Blocks IL-1 and TNF production and TNF-induced apoptosis [92] t 1/2 = 1.3 – 1.7 h | 1.56 to 100 µM | 0.00977 | 3.1 to 250 | 1.56 to 250 | 3.0 | 65 | 58 | 38 | 45 | 51 | 3.3 and 3.3 ± 0.8 | 60 | 600.0 | 3.0 | 0.0 | 6.0 | 9.3 and 9.3 ± 2.5 | Effective range against Osteoclasts (RAW 264.7 cells): ≥ 9.77 nM
COc1ccc(C=CC(=O)Nc2ccccc2C(=O)O)cc1OC [Tranilast, N-(3′,4′-dimethoxycinnamoyl)anthranilic acid] | 1 to 8 | Anti-inflammatory and analgesic properties in collagen-induced arthritis (RA model) [34]. Suppresses COX-2 and iNOS expression, reduces PGE2 and iNOS-derived NO production in stimulated macrophages. Diminishes TNF-α and IL-1β production [35]. T1/2 = 7.4 h | 0.125 to 8 µM | 0.5 | 1 to 8 | 125000 to 8e+06 | – | – | – | – | – | – | – | – | – | – | – | – | – | –
Clc1cccc(Cl)c1N=C1NCCN1 [Clonidine] | 10 to 100 | α2-Receptor agonist and antihypertensive agent Possible induction of iNOS through NF-κB [77] t 1/2 = 6–20 h | 1.56 to 100 µM | – | – | 0.156 to 100 | 3.7 | 87 | 53 | 63 | 73 | 69 | 3.7 and 3.7 ± 0.3 | 67 | 866.7 | 4.0 | 0.3 | 8.0 | 11.7 and 11.7 ± 0.9 | Lowest inhibitory concentration, matrix resorption (RAW 264.7 cells): 10 µM
